Several values for one entry are separate records, joined by “and”; a condition that tells them apart may be missing. Equal entries are not always repeated.
Test system: Rh18 complex spheroid viability, percent test/control
Test: Anticancer human tumor Rh18 cell line growth inhibition [Asc];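 also: spheroids exposed to compound for 7 days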;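 as to viability, T/C: 100% = DMSO vehicle control wells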
Conditions: for viability, T/C: stronger effect = lower value
Summary of the method: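 Stromal components (HUVEC and hMSC) are co-assembled with the cancer cells into multicellular spheroids. Drugs are then added singly or paired, at concentrations falling by half-log increments from a clinically achievable maximum, capped at 10 microM without known Cmax.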

[1] = curve of first compound, second compound 0.01 µM
[2] = curve of first compound, second compound 0.0316 µM
[3] = curve of first compound, second compound 0.1 µM
[4] = curve of first compound, second compound 0.316 µM
[5] = curve of first compound, second compound 1 µM
[6] = second compound 0.01 µM, first compound 0.0316 µM
[7] = second compound 0.01 µM, first compound 0.1 µM
[8] = second compound 0.01 µM, first compound 0.316 µM
[9] = second compound 0.01 µM, first compound 1 µM
[10] = second compound 0.0316 µM, first compound 0.0316 µM
[11] = second compound 0.0316 µM, first compound 0.1 µM
[12] = second compound 0.0316 µM, first compound 0.316 µM
[13] = second compound 0.0316 µM, first compound 1 µM
[14] = second compound 0.1 µM, first compound 0.00316 µM
[15] = second compound 0.1 µM, first compound 0.01 µM
[16] = second compound 0.1 µM, first compound 0.0316 µM
[17] = second compound 0.1 µM, first compound 0.1 µM
[18] = second compound 0.1 µM, first compound 0.316 µM
[19] = second compound 0.1 µM, first compound 1 µM
[20] = second compound 0.316 µM, first compound 0.00316 µM
[21] = second compound 0.316 µM, first compound 0.01 µM
[22] = second compound 0.316 µM, first compound 0.0316 µM
[23] = second compound 0.316 µM, first compound 0.1 µM
[24] = second compound 0.316 µM, first compound 0.316 µM
[25] = second compound 0.316 µM, first compound 1 µM
[26] = second compound 1 µM, first compound 0.00316 µM
[27] = second compound 1 µM, first compound 0.01 µM
[28] = second compound 1 µM, first compound 0.0316 µM
[29] = second compound 1 µM, first compound 0.1 µM
[30] = second compound 1 µM, first compound 0.316 µM
[31] = second compound 1 µM, first compound 1 µM

NC(=O)C(=Cn1cnc(-c2cc(C(F)(F)F)cc(C(F)(F)F)c2)n1)c1cncnc1 + CNC(C)C(=O)NC1CN(S(=O)(=O)c2cccc(S(=O)(=O)N3CCC4CCC(C(=O)NC(c5ccccc5)c5ccccc5)N4C(=O)C(NC(=O)C(C)NC)C3)c2)CCC2CCC(C(=O)NC(c3ccccc3)c3ccccc3)N2C1=O
IC50 [1]: 6.12 nM | IC50 [2]: 3.91 nM | IC50 [3]: 15 nM | IC50 [4]: 4.49 nM | IC50 [5]: < 0.949 nM | viability, T/C (second compound 0.01 µM, first compound 0.000949 µM): 56.6% | viability, T/C (second compound 0.01 µM, first compound 0.003 µM): 53.5% | viability, T/C (second compound 0.01 µM, first compound 0.00949 µM): 49.4% | viability, T/C (second compound 0.01 µM, first compound 0.03 µM): 39.7% | viability, T/C (second compound 0.01 µM, first compound 0.0949 µM): 42% | viability, T/C (second compound 0.01 µM, first compound 0.3 µM): 32.8% | viability, T/C (second compound 0.0316 µM, first compound 0.000949 µM): 74.8% | viability, T/C (second compound 0.0316 µM, first compound 0.003 µM): 51.3% | viability, T/C (second compound 0.0316 µM, first compound 0.00949 µM): 40.7% | viability, T/C (second compound 0.0316 µM, first compound 0.03 µM): 43.8% | viability, T/C (second compound 0.0316 µM, first compound 0.0949 µM): 38.7% | viability, T/C (second compound 0.0316 µM, first compound 0.3 µM): 31.4% | viability, T/C (second compound 0.1 µM, first compound 0.000949 µM): 50.5% | viability, T/C (second compound 0.1 µM, first compound 0.003 µM): 56.4% | viability, T/C (second compound 0.1 µM, first compound 0.00949 µM): 49.7% | viability, T/C (second compound 0.1 µM, first compound 0.03 µM): 47.6% | viability, T/C (second compound 0.1 µM, first compound 0.0949 µM): 33.1% | viability, T/C (second compound 0.1 µM, first compound 0.3 µM): 27.7% | viability, T/C (second compound 0.316 µM, first compound 0.000949 µM): 52% | viability, T/C (second compound 0.316 µM, first compound 0.003 µM): 60.1% | viability, T/C (second compound 0.316 µM, first compound 0.00949 µM): 38.7% | viability, T/C (second compound 0.316 µM, first compound 0.03 µM): 29.7% | viability, T/C (second compound 0.316 µM, first compound 0.0949 µM): 34.3% | viability, T/C (second compound 0.316 µM, first compound 0.3 µM): 24.9% | viability, T/C (second compound 1 µM, first compound 0.000949 µM): 46% | viability, T/C (second compound 1 µM, first compound 0.003 µM): 39.5% | viability, T/C (second compound 1 µM, first compound 0.00949 µM): 38% | viability, T/C (second compound 1 µM, first compound 0.03 µM): 37.8% | viability, T/C (second compound 1 µM, first compound 0.0949 µM): 34.3% | viability, T/C (second compound 1 µM, first compound 0.3 µM): 25.6%

O=C(c1ccc(F)c(F)c1Nc1ccc(I)cc1F)N1CC(O)([C@@H]2CCCCN2)C1 + CNC(C)C(=O)NC1CN(S(=O)(=O)c2cccc(S(=O)(=O)N3CCC4CCC(C(=O)NC(c5ccccc5)c5ccccc5)N4C(=O)C(NC(=O)C(C)NC)C3)c2)CCC2CCC(C(=O)NC(c3ccccc3)c3ccccc3)N2C1=O
IC50 [1]: 61.8 nM | IC50 [2]: 3.16 nM | IC50 [3]: < 3.16 nM | IC50 [4]: < 3.16 nM | IC50 [5]: < 3.16 nM | viability, T/C (second compound 0.01 µM, first compound 0.00316 µM): 53.6% | viability, T/C (second compound 0.01 µM, first compound 0.01 µM): 59.4% | viability, T/C [6]: 48.5% | viability, T/C [7]: 45.2% | viability, T/C [8]: 41.8% | viability, T/C [9]: 14.8% | viability, T/C (second compound 0.0316 µM, first compound 0.00316 µM): 50.4% | viability, T/C (second compound 0.0316 µM, first compound 0.01 µM): 46.1% | viability, T/C [10]: 43.6% | viability, T/C [11]: 47.7% | viability, T/C [12]: 52.1% | viability, T/C [13]: 20.4% | viability, T/C [14]: 39.7% | viability, T/C [15]: 40.8% | viability, T/C [16]: 36.1% | viability, T/C [17]: 43.4% | viability, T/C [18]: 37.9% | viability, T/C [19]: 8.57% | viability, T/C [20]: 43.8% | viability, T/C [21]: 47% | viability, T/C [22]: 38.2% | viability, T/C [23]: 42.3% | viability, T/C [24]: 41.6% | viability, T/C [25]: 13.5% | viability, T/C [26]: 41.5% | viability, T/C [27]: 37.6% | viability, T/C [28]: 37.3% | viability, T/C [29]: 42.9% | viability, T/C [30]: 28.9% | viability, T/C [31]: 11.6%

O=C(c1cc(Cc2n[nH]c(=O)c3ccccc23)ccc1F)N1CCN(C(=O)C2CC2)CC1
viability, T/C (compound 0.0316 µM): 108% and 86.4% and 91.5% | viability, T/C (compound 0.1 µM): 99.5% and 81.7% and 85.2% | viability, T/C (compound 0.316 µM): 59.4% and 79.7% and 82.2% | viability, T/C (compound 1 µM): 57.3% and 63.1% and 73.7% | viability, T/C (compound 3.16 µM): 44.9% and 53% and 35.5% | viability, T/C (compound 10 µM): 44.7% and 41.7% and 29.5% | IC50 (curve of compound): 919 nM and 3840 nM and 2050 nM

Cn1ncnc1[C@H]1c2n[nH]c(=O)c3cc(F)cc(c23)N[C@@H]1c1ccc(F)cc1 + Cc1c(S(C)(=O)=O)c(-c2cc(F)cc(N3CCN(c4ccc(NS(=O)(=O)c5ccc(NC(CCN6CCC(C(=O)OCCCP(=O)(O)O)CC6)CSc6ccccc6)c(S(=O)(=O)C(F)(F)F)c5)cc4)CC3)c2)c(-c2ccc(Cl)cc2)n1C(C)C
IC50 [3]: < 0.316 nM | IC50 [4]: < 0.316 nM | IC50 [5]: < 0.316 nM | IC50 (curve of first compound, second compound 3.16 µM): < 0.316 nM | IC50 (curve of first compound, second compound 10 µM): < 0.316 nM | viability, T/C (second compound 0.1 µM, first compound 0.000316 µM): 17.4% | viability, T/C (second compound 0.1 µM, first compound 0.001 µM): 14.9% | viability, T/C [14]: 17% | viability, T/C [15]: 15.3% | viability, T/C [16]: 13.6% | viability, T/C [17]: 15.4% | viability, T/C (second compound 0.316 µM, first compound 0.000316 µM): 10.9% | viability, T/C (second compound 0.316 µM, first compound 0.001 µM): 11.7% | viability, T/C [20]: 10.6% | viability, T/C [21]: 11.8% | viability, T/C [22]: 11.4% | viability, T/C [23]: 12.6% | viability, T/C (second compound 1 µM, first compound 0.000316 µM): 10.5% | viability, T/C (second compound 1 µM, first compound 0.001 µM): 9.96% | viability, T/C [26]: 7.96% | viability, T/C [27]: 6.9% | viability, T/C [28]: 8.38% | viability, T/C [29]: 9.11% | viability, T/C (second compound 3.16 µM, first compound 0.000316 µM): 5.76% | viability, T/C (second compound 3.16 µM, first compound 0.001 µM): 7.46% | viability, T/C (second compound 3.16 µM, first compound 0.00316 µM): 5.55% | viability, T/C (second compound 3.16 µM, first compound 0.01 µM): 6.19% | viability, T/C (second compound 3.16 µM, first compound 0.0316 µM): 6.82% | viability, T/C (second compound 3.16 µM, first compound 0.1 µM): 6.64% | viability, T/C (second compound 10 µM, first compound 0.000316 µM): 6.76% | viability, T/C (second compound 10 µM, first compound 0.001 µM): 6.12% | viability, T/C (second compound 10 µM, first compound 0.00316 µM): 6.36% | viability, T/C (second compound 10 µM, first compound 0.01 µM): 5.83% | viability, T/C (second compound 10 µM, first compound 0.0316 µM): 6.8% | viability, T/C (second compound 10 µM, first compound 0.1 µM): 9.69%

C=CC(=O)N1CCN(c2nc(=O)n(-c3c(C)ccnc3C(C)C)c3nc(-c4c(O)cccc4F)c(F)cc23)C(C)C1 (configuration not stated) + CNC(C)C(=O)NC1CN(S(=O)(=O)c2cccc(S(=O)(=O)N3CCC4CCC(C(=O)NC(c5ccccc5)c5ccccc5)N4C(=O)C(NC(=O)C(C)NC)C3)c2)CCC2CCC(C(=O)NC(c3ccccc3)c3ccccc3)N2C1=O
IC50 [1]: > 10000 nM | IC50 [2]: 4450 nM | IC50 [3]: 61 nM | IC50 [4]: < 31.6 nM | IC50 [5]: < 31.6 nM | viability, T/C [6]: 61.6% | viability, T/C [7]: 63.6% | viability, T/C [8]: 56% | viability, T/C [9]: 51.8% | viability, T/C (second compound 0.01 µM, first compound 3.16 µM): 59.8% | viability, T/C (second compound 0.01 µM, first compound 10 µM): 61.1% | viability, T/C [10]: 52.4% | viability, T/C [11]: 54.8% | viability, T/C [12]: 61.9% | viability, T/C [13]: 46.2% | viability, T/C (second compound 0.0316 µM, first compound 3.16 µM): 60.7% | viability, T/C (second compound 0.0316 µM, first compound 10 µM): 37.8% | viability, T/C [16]: 49.4% | viability, T/C [17]: 52% | viability, T/C [18]: 48.6% | viability, T/C [19]: 43.1% | viability, T/C (second compound 0.1 µM, first compound 3.16 µM): 46.4% | viability, T/C (second compound 0.1 µM, first compound 10 µM): 43.6% | viability, T/C [22]: 43.1% | viability, T/C [23]: 41.3% | viability, T/C [24]: 41.2% | viability, T/C [25]: 43.9% | viability, T/C (second compound 0.316 µM, first compound 3.16 µM): 52.5% | viability, T/C (second compound 0.316 µM, first compound 10 µM): 45.4% | viability, T/C [28]: 44.1% | viability, T/C [29]: 45% | viability, T/C [30]: 46.4% | viability, T/C [31]: 40% | viability, T/C (second compound 1 µM, first compound 3.16 µM): 35.4% | viability, T/C (second compound 1 µM, first compound 10 µM): 35.9%
